# Results as given in paper PMC8599359 (Molecular Neurobiology, 2021).
# Entries after “also recorded” stand apart in the source; their conditions may differ.
# Experiments:
# [1] = target: T1, MMP-1 (Homo sapiens, UniProt P03956); experiment: Fluorometric substrate assay (MMP inhibitor profiling kit); type: biochemical; details: human recombinant MMP-1, 60 min preincubation, four-parameter fit
# T1 construct: purchased Enzo life sciences BML-AK308
# Procedure: (§1) Kit contained a panel of ten MMPs and a quenched fluorogenic substrate OMNIMMP® RED. Composition of a quenched fluorogenic substrate was TQ3-GABA-Pro-Cha-Abu-Smc-His-Ala-Dab(6’-TAMRA)-Ala-Lys-NH2 [TQ3 = quencher; GABA = 4-aminobutyric acid; Cha = L-cyclohexylalanine; Abu = 2-aminobutyric acid; Smc = S-methyl-L-cysteine; Dab = 2,4-diaminobutyric acid; 6’-TAMRA = 6’-tetramethylrhodamine]. Experiment was performed as per instructions provided in the manufacturer’s manual. The assays were performed in a 96-well, black, flat, microplate format. The compound NNGH was provided as a prototypic control inhibitor. […] Untreated MMPs were used as control. The experiment was performed in biological triplicates. After 60-min incubation, fluorogenic substrate OMNIMMP® RED was added to each reaction/well to start the reaction. The plate was continuously read at Ex/Em = 545/576 nm (cutoff at 570 nm) for 30 min with 1-min time intervals at constant temperature, 37 °C, using Molecular Devices SpectraMax M3 plate reader with SoftMax Pro 6.2 software.
# [2] = target: T2, MMP-12 (Homo sapiens, UniProt P39900); experiment: as above; type: biochemical; details: human recombinant MMP-12, 60 min preincubation, four-parameter fit
# T2 construct: purchased Enzo life sciences BML-AK308
# T2 sequence (P39900 106-470): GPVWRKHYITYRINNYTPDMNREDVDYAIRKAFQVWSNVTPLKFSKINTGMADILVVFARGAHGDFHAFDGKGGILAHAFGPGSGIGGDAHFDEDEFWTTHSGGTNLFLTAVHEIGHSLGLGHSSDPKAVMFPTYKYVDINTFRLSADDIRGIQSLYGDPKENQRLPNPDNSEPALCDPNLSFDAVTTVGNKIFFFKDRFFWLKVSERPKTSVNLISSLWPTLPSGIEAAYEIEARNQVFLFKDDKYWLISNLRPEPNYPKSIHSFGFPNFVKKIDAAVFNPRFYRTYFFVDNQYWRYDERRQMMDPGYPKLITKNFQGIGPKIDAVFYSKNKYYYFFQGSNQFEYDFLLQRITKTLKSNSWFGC
# Procedure: as §1
# [3] = target: T3, MMP-13 (Homo sapiens, UniProt P45452); experiment: as above; type: biochemical
# T3 construct: purchased Enzo life sciences BML-AK308
# Procedure: as §1
# [4] = target: T4, MMP-14 (Homo sapiens, UniProt P50281); experiment: as above; type: biochemical
# T4 construct: purchased Enzo life sciences BML-AK308
# Procedure: as §1
# [5] = target: T5, MMP-19 (Homo sapiens, UniProt Q99542); experiment: as above; type: biochemical; details: human recombinant MMP-19, 60 min preincubation, four-parameter fit
# T5 construct: purchased Enzo life sciences BML-AK308
# T5 sequence (Q99542 98-508): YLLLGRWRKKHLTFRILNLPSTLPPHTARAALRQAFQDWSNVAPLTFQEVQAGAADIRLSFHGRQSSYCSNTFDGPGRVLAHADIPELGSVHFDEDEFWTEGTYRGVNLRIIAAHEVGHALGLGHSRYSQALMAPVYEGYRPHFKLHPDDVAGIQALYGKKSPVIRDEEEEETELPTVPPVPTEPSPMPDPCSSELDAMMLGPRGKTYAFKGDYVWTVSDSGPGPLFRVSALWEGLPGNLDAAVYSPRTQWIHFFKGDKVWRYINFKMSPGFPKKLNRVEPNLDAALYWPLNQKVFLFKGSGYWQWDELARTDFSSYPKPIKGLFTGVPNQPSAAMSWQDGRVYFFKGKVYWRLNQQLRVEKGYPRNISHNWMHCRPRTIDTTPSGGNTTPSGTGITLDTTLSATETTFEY
# Procedure: as §1
# [6] = target: T6, MMP-3 (Homo sapiens, UniProt P08254); experiment: as above; type: biochemical; details: human recombinant MMP-3, 60 min preincubation, four-parameter fit
# T6 construct: purchased Enzo life sciences BML-AK308
# T6 sequence (P08254 100-477): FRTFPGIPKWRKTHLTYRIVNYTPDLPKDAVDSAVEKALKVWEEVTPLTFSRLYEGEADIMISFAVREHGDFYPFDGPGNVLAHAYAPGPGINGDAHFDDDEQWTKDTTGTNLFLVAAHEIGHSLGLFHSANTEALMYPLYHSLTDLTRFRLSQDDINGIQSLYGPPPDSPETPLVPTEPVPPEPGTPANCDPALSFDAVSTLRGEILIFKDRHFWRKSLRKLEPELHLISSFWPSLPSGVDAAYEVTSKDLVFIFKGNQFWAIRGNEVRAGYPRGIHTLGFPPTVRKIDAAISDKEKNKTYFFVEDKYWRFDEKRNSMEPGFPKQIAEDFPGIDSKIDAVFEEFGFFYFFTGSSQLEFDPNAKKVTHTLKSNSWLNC
# Procedure: as §1
# [7] = target: T7, MMP-7 (Homo sapiens, UniProt P09237); experiment: as above; type: biochemical; details: human recombinant MMP-7, 60 min preincubation, four-parameter fit
# T7 construct: purchased Enzo life sciences BML-AK308
# T7 sequence (P09237 95-267): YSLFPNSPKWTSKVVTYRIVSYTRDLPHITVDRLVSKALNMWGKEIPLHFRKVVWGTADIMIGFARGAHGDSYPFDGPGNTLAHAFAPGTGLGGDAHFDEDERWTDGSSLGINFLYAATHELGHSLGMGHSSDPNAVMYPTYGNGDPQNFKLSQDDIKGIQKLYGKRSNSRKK
# Procedure: as §1
# [8] = target: T8, MMP-8 (Homo sapiens, UniProt P22894); experiment: as above; type: biochemical
# T8 construct: purchased Enzo life sciences BML-AK308
# T8 sequence (P22894 101-467): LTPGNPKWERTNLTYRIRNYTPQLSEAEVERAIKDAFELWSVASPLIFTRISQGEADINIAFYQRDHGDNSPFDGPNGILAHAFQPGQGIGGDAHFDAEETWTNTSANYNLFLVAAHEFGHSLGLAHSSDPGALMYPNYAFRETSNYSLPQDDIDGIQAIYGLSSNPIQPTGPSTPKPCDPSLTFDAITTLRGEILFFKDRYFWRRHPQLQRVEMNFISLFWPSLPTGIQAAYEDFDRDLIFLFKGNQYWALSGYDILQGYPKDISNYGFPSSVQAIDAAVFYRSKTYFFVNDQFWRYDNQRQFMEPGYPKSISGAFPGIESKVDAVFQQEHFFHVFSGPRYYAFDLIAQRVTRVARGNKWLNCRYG
# Procedure: as §1
# [9] = system: THP-1 cells; experiment: MTT cytotoxicity assay; type: cell-based; details: THP-1 cells, 1, 10 or 100 µM, 18 h
# Procedure: THP-1 cells were plated in 96-well plates at a density of 0.08 × 10^6 cells per well. […] Vehicle-treated cells were used as controls. For each treatment, twelve samples were utilized. Cells were washed with PBS and incubated with 100 μL/well of MTT solution (5 mg/mL) for 45 min at 37 °C. After incubation, MTT solution was removed, and DMSO (200 μL) was added to each well. Absorbance was measured at 490 nm on a Molecular Devices SpectraMax M3 plate reader with SoftMax […].2 software (Sunnyvale, CA). Absorbance was compared to that of control cells to determine cytotoxicity.
# [10] = system: MMP; experiment: Broad-spectrum MMP activity in embryonic brain (fluorometric substrate); type: in vivo, mouse; details: GD 16.5, dams 50 mg/kg/day oral GD 0.5-15.5, compared to controls
# Procedure: Broad-spectrum MMP activity was measured in whole brain tissue homogenates of normal, viable embryos (GD 16.5) using a quenched fluorogenic substrate, OMNIMMP® RED (BML-P277-0100, Enzo Life Sciences). Whole brain tissues were isolated from randomly selected embryos from different dams for both DTG and control groups. Tissues were homogenized in NP-40 lysis buffer using a Qiagen TissueLyzer II (Valencia, CA). Tissue lysates were centrifuged at 16,000 g at 4 °C for 20 min and supernatants were collected. Total protein levels in each sample were quantitated using Pierce™ BCA Protein Assay Kit (Thermo Fisher Scientific, Waltham, MA). The assays were performed in a 96-well, black, flat, microplate format. Fifty micrograms of protein for each sample was incubated with buffer (BML-KI175-0020, Enzo Life Sciences) at 37 °C for 60 min. Each sample was platted in duplicates. Later, reaction was started by adding fluorogenic substrate. Plate was read at similar instructions mentioned above for fluorometric substrate assay. Ilomastat (GM6001; broad-spectrum MMP inhibitor, ab120845, abcam) was added to randomly selected protein samples in additional wells at 20 µM concentration as an assay control.
# [11] = target: MMP-9 (Homo sapiens, UniProt P14780); experiment: Gelatin zymography of medium of PMA-stimulated THP-1 cells; type: cell-based; set-up: endogenous in cells; host or cells: PMA-stimulated THP-1 cells, culture medium; details: 100 µM, 18 h, compared to controls
# MMP-9, sequence (P14780 94-707): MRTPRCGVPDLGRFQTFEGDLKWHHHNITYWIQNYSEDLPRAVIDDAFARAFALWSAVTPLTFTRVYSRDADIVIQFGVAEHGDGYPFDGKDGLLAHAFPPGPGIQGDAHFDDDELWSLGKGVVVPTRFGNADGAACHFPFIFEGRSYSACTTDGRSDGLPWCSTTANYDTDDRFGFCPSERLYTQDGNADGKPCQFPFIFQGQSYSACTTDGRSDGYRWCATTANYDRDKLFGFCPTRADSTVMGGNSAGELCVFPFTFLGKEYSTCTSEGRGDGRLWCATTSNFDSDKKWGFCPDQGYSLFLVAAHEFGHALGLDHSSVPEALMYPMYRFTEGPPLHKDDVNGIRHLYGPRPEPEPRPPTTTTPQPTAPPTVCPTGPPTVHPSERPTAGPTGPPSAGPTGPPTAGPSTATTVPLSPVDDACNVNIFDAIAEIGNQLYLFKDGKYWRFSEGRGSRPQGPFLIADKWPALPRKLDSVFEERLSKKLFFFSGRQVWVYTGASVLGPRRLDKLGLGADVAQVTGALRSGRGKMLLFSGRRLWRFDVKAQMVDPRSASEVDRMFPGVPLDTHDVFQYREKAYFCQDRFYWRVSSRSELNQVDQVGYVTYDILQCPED
# Procedure: THP-1 cells were plated in 12-well plates at a density of 1 × 10^6 cells per well. First, THP-1 were treated with phorbol-12-myristate-13-acetate (PMA) for 24 h to promote the differentiation of cells into macrophages and stimulate MMP secretion. […] For each treatment, biological triplicate samples were utilized. Following treatment, cell medium was collected from each well and centrifuged at 800 × g for 10 min at 4 °C to remove any cell debris. Collected samples were stored at − 80 °C for further analysis. A 10% SDS–polyacrylamide gel containing 0.1% gelatin was loaded with 3 µg of protein from cell medium for gelatin zymography. In parallel, second 10% SDS–polyacrylamide gel was used to assess equal protein loading. In addition, recombinant human MMP-2 and MMP-9 (10 ng each) were loaded as standards (EMD Millipore, Burlington, MA). Gel ran at 60 V until the loading dye reached the bottom of the gel. After the run, the gelatin gel was washed with water for 15 min and incubated in renaturation buffer [2.5% (v/v) Triton X-100 in Milli-Q water] for 60 min at room temperature. The renaturation buffer was replaced with a fresh renaturation buffer at the interval of 30 min. […] Relative activity of MMPs was measured by quantitating band density by ImageJ software and normalized with respective standard.
# T1 sequence (P03956 100-469): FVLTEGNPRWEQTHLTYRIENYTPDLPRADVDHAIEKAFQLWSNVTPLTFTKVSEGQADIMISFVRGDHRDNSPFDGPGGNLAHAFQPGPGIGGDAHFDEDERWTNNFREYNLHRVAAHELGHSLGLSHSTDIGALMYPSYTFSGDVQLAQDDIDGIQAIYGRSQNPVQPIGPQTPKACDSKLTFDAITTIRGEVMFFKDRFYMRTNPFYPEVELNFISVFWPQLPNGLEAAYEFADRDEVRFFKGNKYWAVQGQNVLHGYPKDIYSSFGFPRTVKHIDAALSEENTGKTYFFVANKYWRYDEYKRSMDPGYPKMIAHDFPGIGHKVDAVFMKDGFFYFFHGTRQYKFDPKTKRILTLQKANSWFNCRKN
smiles,measurement,setting,value
"C[C@@H]1CCO[C@H]2Cn3cc(C(=O)NCc4ccc(F)cc4F)c(=O)c(O)c3C(=O)N12 [DTG, Dolutegravir]",IC50,[1],83.9 µM
same,IC50,[2],131 µM
same,inhibitory effect compared to doxycycline,"[3]; MMP-13, 20 µM",higher inhibitory effect
same,IC50,"[3]; human recombinant MMP-13, 60 min preincubation, four-parameter fit",36.5 µM
same,inhibitory effect compared to doxycycline,"[4]; MMP-14, 20 µM",higher inhibitory effect
same,IC50,"[4]; human recombinant MMP-14, 60 min preincubation, four-parameter fit",10.5 µM
same,IC50,[5],54 µM
same,IC50,[6],60.3 µM
same,IC50,[7],309 µM
same,inhibitory effect compared to doxycycline,"[8]; MMP-8, 20 µM",higher inhibitory effect
same,IC50,"[8]; human recombinant MMP-8, 60 min preincubation, four-parameter fit",12.1 µM
same,"Cytotoxicity (cellular viability, MTT)",[9],Cytotoxicity was not observed at any concentration; also recorded: no DTG-induced cytotoxicity
same,Broad-spectrum MMP activity in embryonic brain,[10],significantly inhibited
same,Relative activity of pro form of MMP-9,[11],significantly decreased
